Laboratory results published in PubChem BioAssay AID248 (DTP/NCI, 2004).
Toxic doses and inconclusive results are not listed. Cut-off read from the data, not from the text of the source: active = T/C of 150% or more; inactive = T/C below 125%.

Test system: L1210 leukemia ip in BDF1 mice, survival T/C
Assay: NCI In Vivo Anticancer Drug Screen. Data for tumor model L1210 Leukemia (intraperitoneal) in B6D2F1 (BDF1) mice
Details: endpoint: mean survival time, higher = longer survival
Procedure, shortened: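 In this screen, tumor-bearing mice given compound are compared to those given vehicle, and their survival values are reported as a treated-to-control quotient.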

[1] = dose: 100.0 mg/kg/injection, schedule: Q04DX003 (ip), vehicle: Klucel (hydroxypropylcellulose) (HPC)
[2] = dose: 200.0 mg/kg/injection, schedule: Q04DX003 (ip), vehicle: Klucel (hydroxypropylcellulose) (HPC)
[3] = dose: 12.5 mg/kg/injection, schedule: Q01DX009 (ip), vehicle: Klucel (hydroxypropylcellulose) (HPC)
[4] = dose: 25.0 mg/kg/injection, schedule: Q01DX009 (ip), vehicle: Klucel (hydroxypropylcellulose) (HPC)
[5] = dose: 25.0 mg/kg/injection, schedule: Q04DX003 (ip), vehicle: Klucel (hydroxypropylcellulose) (HPC)
[6] = dose: 50.0 mg/kg/injection, schedule: Q01DX009 (ip), vehicle: Klucel (hydroxypropylcellulose) (HPC)

Measured: T/C

O=NN(CCCl)C(=O)NC1CCCCCCCCCCC1
inactive: dose: 2.5 mg/kg/injection, schedule: Q01DX001 (ip), vehicle: carboxymethylcellulose (CMC) 114 % of control | dose: 5.0 mg/kg/injection, schedule: Q01DX001 (ip), vehicle: carboxymethylcellulose (CMC) 120 % of control | dose: 8.0 mg/kg/injection, schedule: Q01DX001 (ip), vehicle: carboxymethylcellulose (CMC) 123 % of control | dose: 12.0 mg/kg/injection, schedule: Q01DX001 (ip), vehicle: carboxymethylcellulose (CMC) 121 % of control | dose: 2000.0 mg/kg/injection, schedule: Q01DX001 (ip), vehicle: other 91 % of control
active: dose: 187.0 mg/kg/injection, schedule: Q01DX001 (ip), vehicle: carboxymethylcellulose (CMC) 166 % of control | dose: 250.0 mg/kg/injection, schedule: Q01DX001 (ip), vehicle: carboxymethylcellulose (CMC) 153 % of control | dose: 375.0 mg/kg/injection, schedule: Q01DX001 (ip), vehicle: carboxymethylcellulose (CMC) 160 % of control | dose: 500.0 mg/kg/injection, schedule: Q01DX001 (ip), vehicle: carboxymethylcellulose (CMC) 174 % of control | dose: 555.0 mg/kg/injection, schedule: Q01DX001 (ip), vehicle: other 172 % of control | dose: 596.0 mg/kg/injection, schedule: Q01DX001 (ip), vehicle: other 155 % of control | dose: 750.0 mg/kg/injection, schedule: Q01DX001 (ip), vehicle: carboxymethylcellulose (CMC) 233 % of control | dose: 838.0 mg/kg/injection, schedule: Q01DX001 (ip), vehicle: other 221 % of control | dose: 1000.0 mg/kg/injection, schedule: Q01DX001 (ip), vehicle: carboxymethylcellulose (CMC) 247 % of control | dose: 1192.0 mg/kg/injection, schedule: Q01DX001 (ip), vehicle: other 185 % of control | dose: 1250.0 mg/kg/injection, schedule: Q01DX001 (ip), vehicle: other 274 % of control | dose: 1500.0 mg/kg/injection, schedule: Q01DX001 (ip), vehicle: other 167 % of control | dose: 1875.0 mg/kg/injection, schedule: Q01DX001 (ip), vehicle: other 261 % of control | dose: 2384.0 mg/kg/injection, schedule: Q01DX001 (ip), vehicle: other 178 % of control

O=c1cc(NCc2c(Cl)cccc2[N+](=O)[O-])[nH]c(=O)[nH]1
inactive: [1] 98 % of control | [2] 95 % of control | dose: 400.0 mg/kg/injection, schedule: Q04DX003 (ip), vehicle: Klucel (hydroxypropylcellulose) (HPC) 95 % of control

CC(=O)Nc1cccc2c(C)ccnc12
inactive: [3] 99 % of control | dose: 12.5 mg/kg/injection, schedule: Q04DX003 (ip), vehicle: Klucel (hydroxypropylcellulose) (HPC) 94 % of control | [4] 97 % of control | [5] 98 % of control | [6] 87 % of control | dose: 50.0 mg/kg/injection, schedule: Q04DX003 (ip), vehicle: Klucel (hydroxypropylcellulose) (HPC) 95 % of control

COc1ccc(NC(=S)Nc2ccccn2)cc1
inactive: dose: 100.0 mg/kg/injection, schedule: Q01DX009 (ip), vehicle: other 106 % of control | dose: 100.0 mg/kg/injection, schedule: Q04DX003 (ip), vehicle: saline 101 % of control | dose: 200.0 mg/kg/injection, schedule: Q01DX009 (ip), vehicle: other 97 % of control | dose: 200.0 mg/kg/injection, schedule: Q04DX003 (ip), vehicle: saline 87 % of control | dose: 400.0 mg/kg/injection, schedule: Q01DX009 (ip), vehicle: other 103 % of control | dose: 400.0 mg/kg/injection, schedule: Q04DX003 (ip), vehicle: saline 98 % of control

COCCOCCOC(C)Oc1ccc(C(=O)OC)cc1 (stereo not drawn)
inactive: dose: 100.0 mg/kg/injection, schedule: Q04DX002 (ip), vehicle: saline 105 % of control | dose: 200.0 mg/kg/injection, schedule: Q04DX002 (ip), vehicle: saline 92 % of control | dose: 400.0 mg/kg/injection, schedule: Q04DX002 (ip), vehicle: saline 108 % of control

NC(N)=Nc1ccc(NC(=O)c2ccc(C(=O)Nc3ccc(N=C(N)N)cc3)cc2)cc1
inactive: dose: 1.8 mg/kg/injection, schedule: Q01DX Z (ip), vehicle: carboxymethylcellulose (CMC) 122 % of control | dose: 3.7 mg/kg/injection, schedule: Q01DX Z (ip), vehicle: carboxymethylcellulose (CMC) 104 % of control | dose: 7.5 mg/kg/injection, schedule: Q01DX Z (ip), vehicle: carboxymethylcellulose (CMC) 88 % of control

Clc1ccc2sc3c(c2c1)CCNC3
inactive: [3] 94 % of control | [4] 97 % of control | [5] 97 % of control | [6] 90 % of control | dose: 100.0 mg/kg/injection, schedule: Q01DX009 (ip), vehicle: Klucel (hydroxypropylcellulose) (HPC) 101 % of control | [1] 92 % of control | dose: 200.0 mg/kg/injection, schedule: Q01DX009 (ip), vehicle: Klucel (hydroxypropylcellulose) (HPC) 95 % of control | [2] 92 % of control
